In one assay the test system is BT-474. Description: Proliferation assay: BT-474 (breast cancer). It is filed as functional, cell-based. The note with it: Homo sapiens.
Assay [1] deals with Atypical kinase COQ8B, mitochondrial (Homo sapiens) (UniProt Q96D53). The note with it: Compound concentration 1000.0 nM.
Assay [2] has as its target Ankyrin repeat and protein kinase domain-containing protein 1 (Homo sapiens) (UniProt Q8NFD2). To be noted: Compound concentration 1000.0 nM.
Assay [3] addresses Cyclin-dependent kinase 8 (Homo sapiens) (UniProt P49336). The note with it: Compound concentration 1000.0 nM.
Assay [4] deals with Casein kinase I isoform alpha-like (Homo sapiens) (UniProt Q8N752). The note with it: Compound concentration 1000.0 nM.
Assay [5] concerns Receptor-type tyrosine-protein kinase FLT3 (Homo sapiens), P36888 [UNDEFINED MUTATION]. To be noted: Compound concentration 1000.0 nM.
Receptor-type tyrosine-protein kinase FLT3 (Homo sapiens), P36888 [UNDEFINED MUTATION], sequence (P36888 whole entry, looked up, change not shown): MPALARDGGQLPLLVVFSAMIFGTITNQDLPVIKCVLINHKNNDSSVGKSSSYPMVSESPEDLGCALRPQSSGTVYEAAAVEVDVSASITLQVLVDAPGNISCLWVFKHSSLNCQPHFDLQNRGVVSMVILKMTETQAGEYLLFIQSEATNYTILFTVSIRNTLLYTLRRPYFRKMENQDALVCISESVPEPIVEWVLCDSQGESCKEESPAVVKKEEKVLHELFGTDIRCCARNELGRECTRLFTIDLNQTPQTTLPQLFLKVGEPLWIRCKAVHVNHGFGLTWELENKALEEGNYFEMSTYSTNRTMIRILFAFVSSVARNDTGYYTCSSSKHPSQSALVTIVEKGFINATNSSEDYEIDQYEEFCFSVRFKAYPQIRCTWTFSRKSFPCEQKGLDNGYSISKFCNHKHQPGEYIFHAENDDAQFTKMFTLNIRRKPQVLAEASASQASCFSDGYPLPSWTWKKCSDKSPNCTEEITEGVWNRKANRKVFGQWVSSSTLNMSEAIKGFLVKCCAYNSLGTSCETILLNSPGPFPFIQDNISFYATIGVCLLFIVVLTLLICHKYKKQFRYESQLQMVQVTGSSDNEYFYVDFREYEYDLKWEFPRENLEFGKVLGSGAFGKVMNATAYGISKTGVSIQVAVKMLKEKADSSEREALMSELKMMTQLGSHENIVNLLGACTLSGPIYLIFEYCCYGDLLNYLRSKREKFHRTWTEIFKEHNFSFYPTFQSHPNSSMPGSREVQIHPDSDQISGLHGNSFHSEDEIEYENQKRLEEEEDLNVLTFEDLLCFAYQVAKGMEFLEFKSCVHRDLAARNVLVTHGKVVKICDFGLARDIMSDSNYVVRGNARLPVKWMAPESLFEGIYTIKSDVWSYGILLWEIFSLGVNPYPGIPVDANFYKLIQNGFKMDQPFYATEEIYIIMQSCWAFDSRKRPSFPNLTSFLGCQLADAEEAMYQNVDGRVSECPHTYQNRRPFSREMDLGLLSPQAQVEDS
Assay [6] has as its target T1, Serine/threonine-protein kinase STK11 (Homo sapiens) (UniProt Q15831).
T1 sequence (whole entry): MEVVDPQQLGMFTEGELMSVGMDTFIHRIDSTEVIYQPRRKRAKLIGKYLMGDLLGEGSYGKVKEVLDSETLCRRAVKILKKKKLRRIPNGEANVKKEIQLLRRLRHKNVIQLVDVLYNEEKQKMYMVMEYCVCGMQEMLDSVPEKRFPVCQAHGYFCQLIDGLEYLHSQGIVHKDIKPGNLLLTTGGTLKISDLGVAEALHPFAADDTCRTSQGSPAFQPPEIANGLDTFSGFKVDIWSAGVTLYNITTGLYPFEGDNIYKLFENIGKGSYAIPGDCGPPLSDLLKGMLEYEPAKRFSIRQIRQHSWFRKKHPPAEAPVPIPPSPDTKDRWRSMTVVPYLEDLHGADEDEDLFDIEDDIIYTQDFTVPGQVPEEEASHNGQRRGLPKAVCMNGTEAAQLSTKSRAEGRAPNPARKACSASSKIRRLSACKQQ
To be noted: Compound concentration 1000.0 nM.

Assay [7] concerns the target Serine/threonine-protein kinase mTOR (Homo sapiens) (UniProt P42345). To be noted: Compound concentration 1000.0 nM.
For assay [8], the target named is Serine/threonine-protein kinase NIM1 (Homo sapiens) (UniProt Q8IY84). The note with it: Compound concentration 1000.0 nM.
Serine/threonine-protein kinase NIM1 (Homo sapiens), sequence (Q8IY84 whole entry): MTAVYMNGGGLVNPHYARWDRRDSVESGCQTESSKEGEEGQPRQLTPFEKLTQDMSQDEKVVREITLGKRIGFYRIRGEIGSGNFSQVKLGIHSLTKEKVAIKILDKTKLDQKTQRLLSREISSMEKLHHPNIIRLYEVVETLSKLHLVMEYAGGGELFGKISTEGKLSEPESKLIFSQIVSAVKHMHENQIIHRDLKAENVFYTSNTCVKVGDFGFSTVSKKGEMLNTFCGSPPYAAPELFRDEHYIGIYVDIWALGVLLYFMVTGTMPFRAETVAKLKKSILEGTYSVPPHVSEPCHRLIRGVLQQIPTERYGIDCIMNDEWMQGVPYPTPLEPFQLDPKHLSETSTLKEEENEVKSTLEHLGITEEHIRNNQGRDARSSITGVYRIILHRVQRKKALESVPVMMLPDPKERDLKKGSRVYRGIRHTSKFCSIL
Assay [9] deals with Proto-oncogene tyrosine-protein kinase ROS (Homo sapiens) (UniProt P08922). The note with it: Compound concentration 1000.0 nM.
Proto-oncogene tyrosine-protein kinase ROS (Homo sapiens), sequence (P08922 whole entry): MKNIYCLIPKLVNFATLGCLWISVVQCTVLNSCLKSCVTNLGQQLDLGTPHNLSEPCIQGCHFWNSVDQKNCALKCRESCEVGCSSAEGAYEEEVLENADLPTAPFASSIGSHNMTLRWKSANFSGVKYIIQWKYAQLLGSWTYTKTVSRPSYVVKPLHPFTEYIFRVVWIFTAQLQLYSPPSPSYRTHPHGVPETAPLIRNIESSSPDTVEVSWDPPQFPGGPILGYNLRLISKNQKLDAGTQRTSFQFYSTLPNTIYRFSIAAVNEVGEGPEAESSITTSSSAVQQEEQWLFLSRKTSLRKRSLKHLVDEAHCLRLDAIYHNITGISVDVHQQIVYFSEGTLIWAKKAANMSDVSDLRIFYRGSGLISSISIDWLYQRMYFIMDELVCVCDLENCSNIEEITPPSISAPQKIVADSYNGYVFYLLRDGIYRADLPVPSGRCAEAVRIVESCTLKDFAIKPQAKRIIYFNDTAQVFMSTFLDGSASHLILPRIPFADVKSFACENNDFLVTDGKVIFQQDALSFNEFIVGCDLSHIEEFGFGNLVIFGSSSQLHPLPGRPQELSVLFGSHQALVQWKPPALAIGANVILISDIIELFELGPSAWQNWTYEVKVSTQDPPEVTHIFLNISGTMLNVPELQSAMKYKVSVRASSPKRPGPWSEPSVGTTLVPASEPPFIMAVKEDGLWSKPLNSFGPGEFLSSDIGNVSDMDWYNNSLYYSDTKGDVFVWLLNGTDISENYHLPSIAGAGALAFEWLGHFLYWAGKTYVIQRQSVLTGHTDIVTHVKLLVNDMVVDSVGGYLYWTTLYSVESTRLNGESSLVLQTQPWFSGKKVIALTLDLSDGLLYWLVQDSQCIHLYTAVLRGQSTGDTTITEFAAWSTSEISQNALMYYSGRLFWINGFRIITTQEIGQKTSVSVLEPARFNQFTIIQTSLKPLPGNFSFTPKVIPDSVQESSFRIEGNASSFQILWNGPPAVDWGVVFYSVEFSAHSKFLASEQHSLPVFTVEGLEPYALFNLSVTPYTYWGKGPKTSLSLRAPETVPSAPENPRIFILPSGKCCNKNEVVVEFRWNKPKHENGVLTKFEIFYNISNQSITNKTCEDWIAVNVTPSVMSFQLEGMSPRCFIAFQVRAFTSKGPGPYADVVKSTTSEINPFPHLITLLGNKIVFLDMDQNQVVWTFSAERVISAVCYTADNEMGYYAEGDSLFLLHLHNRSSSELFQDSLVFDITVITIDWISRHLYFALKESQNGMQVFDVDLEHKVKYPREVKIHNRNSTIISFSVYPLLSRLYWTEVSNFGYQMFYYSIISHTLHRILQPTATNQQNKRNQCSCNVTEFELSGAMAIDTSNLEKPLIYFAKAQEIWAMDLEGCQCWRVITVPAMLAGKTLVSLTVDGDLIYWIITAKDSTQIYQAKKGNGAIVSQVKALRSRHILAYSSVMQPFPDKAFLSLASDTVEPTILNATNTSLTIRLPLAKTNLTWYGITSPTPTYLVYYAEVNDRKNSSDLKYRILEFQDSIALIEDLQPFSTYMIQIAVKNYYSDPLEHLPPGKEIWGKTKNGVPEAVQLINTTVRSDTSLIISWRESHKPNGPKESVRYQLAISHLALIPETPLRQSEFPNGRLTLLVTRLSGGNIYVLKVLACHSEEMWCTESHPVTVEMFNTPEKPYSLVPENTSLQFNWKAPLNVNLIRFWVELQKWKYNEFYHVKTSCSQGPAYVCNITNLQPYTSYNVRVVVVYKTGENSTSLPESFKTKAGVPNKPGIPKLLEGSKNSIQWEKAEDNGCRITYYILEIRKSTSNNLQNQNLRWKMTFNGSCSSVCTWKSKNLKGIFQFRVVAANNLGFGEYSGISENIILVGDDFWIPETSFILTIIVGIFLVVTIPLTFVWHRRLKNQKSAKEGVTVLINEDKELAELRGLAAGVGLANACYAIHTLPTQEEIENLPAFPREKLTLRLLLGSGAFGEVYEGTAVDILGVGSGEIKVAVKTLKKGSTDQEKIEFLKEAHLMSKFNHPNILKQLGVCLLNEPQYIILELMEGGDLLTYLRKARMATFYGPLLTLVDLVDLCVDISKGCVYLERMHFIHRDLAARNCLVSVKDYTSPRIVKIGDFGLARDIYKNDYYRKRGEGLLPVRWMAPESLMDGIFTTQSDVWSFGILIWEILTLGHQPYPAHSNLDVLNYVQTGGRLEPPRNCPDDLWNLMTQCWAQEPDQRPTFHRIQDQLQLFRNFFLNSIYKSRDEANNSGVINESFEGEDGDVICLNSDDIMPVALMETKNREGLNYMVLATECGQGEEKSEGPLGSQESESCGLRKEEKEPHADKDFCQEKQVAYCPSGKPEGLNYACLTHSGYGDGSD
The target in assay [10] is Ribosomal protein S6 kinase alpha-5 (Homo sapiens) (UniProt O75582). The note with it: Compound concentration 1000.0 nM.
Ribosomal protein S6 kinase alpha-5 (Homo sapiens), sequence (O75582 whole entry, looked up): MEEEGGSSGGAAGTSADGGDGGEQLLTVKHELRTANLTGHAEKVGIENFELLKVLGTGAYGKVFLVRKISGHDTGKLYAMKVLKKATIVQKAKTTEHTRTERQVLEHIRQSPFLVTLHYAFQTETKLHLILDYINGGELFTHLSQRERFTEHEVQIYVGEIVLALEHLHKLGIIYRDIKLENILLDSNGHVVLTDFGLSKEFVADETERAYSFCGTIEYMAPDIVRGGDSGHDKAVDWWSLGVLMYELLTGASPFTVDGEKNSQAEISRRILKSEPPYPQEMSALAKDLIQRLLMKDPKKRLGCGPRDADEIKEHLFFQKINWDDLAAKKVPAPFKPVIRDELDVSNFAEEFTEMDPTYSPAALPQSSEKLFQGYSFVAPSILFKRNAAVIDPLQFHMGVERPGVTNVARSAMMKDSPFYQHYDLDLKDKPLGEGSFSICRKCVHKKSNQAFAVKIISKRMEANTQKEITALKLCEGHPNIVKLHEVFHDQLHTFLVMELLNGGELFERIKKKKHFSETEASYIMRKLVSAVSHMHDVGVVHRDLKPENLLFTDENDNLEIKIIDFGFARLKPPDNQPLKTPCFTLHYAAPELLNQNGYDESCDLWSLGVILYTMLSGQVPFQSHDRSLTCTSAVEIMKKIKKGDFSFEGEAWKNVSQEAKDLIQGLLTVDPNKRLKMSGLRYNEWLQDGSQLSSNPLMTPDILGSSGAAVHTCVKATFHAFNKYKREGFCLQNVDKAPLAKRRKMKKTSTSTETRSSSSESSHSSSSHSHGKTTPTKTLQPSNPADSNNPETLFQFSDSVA
Assay [11] addresses Transient receptor potential cation channel subfamily M member 6 (Homo sapiens) (UniProt Q9BX84). The note with it: Compound concentration 1000.0 nM.
Assay [12] has as its target T2, Tyrosine-protein kinase receptor TYRO3 (Homo sapiens) (UniProt Q06418).
T2 sequence (whole entry): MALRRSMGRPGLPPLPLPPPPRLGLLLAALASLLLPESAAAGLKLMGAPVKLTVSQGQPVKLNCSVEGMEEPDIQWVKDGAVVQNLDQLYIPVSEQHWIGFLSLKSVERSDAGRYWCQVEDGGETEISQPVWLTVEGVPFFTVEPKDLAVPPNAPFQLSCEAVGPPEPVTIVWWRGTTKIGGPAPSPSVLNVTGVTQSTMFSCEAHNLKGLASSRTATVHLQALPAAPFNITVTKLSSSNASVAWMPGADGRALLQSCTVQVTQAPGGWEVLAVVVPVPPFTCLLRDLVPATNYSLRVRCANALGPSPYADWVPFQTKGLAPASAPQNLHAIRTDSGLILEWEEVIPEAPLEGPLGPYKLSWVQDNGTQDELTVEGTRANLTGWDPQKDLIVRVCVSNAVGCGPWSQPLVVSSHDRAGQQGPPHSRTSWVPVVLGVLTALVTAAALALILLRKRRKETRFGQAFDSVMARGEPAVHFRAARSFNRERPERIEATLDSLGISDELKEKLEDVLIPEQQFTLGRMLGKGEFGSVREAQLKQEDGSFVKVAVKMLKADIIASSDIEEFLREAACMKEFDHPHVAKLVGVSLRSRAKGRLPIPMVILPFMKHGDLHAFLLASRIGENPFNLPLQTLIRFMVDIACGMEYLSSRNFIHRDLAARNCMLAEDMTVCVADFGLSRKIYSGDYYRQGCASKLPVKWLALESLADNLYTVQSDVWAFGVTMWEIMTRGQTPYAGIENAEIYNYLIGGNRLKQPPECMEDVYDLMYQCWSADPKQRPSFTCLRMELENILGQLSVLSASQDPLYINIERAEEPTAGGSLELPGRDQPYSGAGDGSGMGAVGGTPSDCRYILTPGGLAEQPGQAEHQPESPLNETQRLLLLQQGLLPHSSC
The note with it: Compound concentration 1000.0 nM.

Assay [13] deals with Serine/threonine-protein kinase 32C (Homo sapiens) (UniProt Q86UX6). To be noted: Compound concentration 1000.0 nM.
For assay [14], the target named is 5-hydroxytryptamine receptor 7 (Homo sapiens) (UniProt P34969). To be noted: Compound concentration 10.0 uM.
The target of assay [15] is D(3) dopamine receptor (Homo sapiens) (UniProt P35462). The note with it: Compound concentration 10.0 uM.
The target of assay [16] is Histamine H1 receptor (Homo sapiens) (UniProt P35367). To be noted: Compound concentration 10.0 uM.

The structures appear in SMILES notation.

Cyclin-dependent kinase 8 (Homo sapiens), sequence (P49336 whole entry, canonical isoform): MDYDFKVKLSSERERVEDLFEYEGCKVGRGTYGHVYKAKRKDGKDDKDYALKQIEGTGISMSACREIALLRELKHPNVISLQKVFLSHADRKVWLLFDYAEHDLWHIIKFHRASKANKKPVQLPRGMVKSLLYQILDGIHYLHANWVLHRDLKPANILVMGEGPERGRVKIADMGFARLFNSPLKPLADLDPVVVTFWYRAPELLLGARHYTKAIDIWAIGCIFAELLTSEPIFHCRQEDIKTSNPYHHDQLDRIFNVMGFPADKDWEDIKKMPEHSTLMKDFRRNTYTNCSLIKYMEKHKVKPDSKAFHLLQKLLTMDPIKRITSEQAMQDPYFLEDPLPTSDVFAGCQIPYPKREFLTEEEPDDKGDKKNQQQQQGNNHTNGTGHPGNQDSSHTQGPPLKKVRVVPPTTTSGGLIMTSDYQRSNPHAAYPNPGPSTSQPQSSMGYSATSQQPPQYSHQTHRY

Consider `Cc1nc(C2CCN(C(=O)c3ccc(OC(F)(F)F)cc3N)CC2)c2ncc(N3CCN(C)CC3)cc2n1` [BAY-693], for which the IC50 in the assay with BT-474 is given as 27.6 µM (not active). Moreover, the residual activity in assay [1] was 93%; in assay [2], 81%; in assay [3], 100%; in [4], 100%; in [5] it was 100%; in [6], 100%. Besides, the residual activity was 78% in assay [7]; 89% in assay [8]; 92% in assay [9]; 90% in assay [10]; 100% in [11]; 100% in assay [12]. In addition, in [13], the residual activity was 100%. Besides, the inhibition in assay [14] was -0.78%; in [15] it was -8.88%; in [16], 4.99%.

In the case of `CN1CCN(c2cnc3c(C4CCN(C(=O)c5ccc(OC(F)(F)F)cc5N)CC4)ncnc3c2)CC1` [BAY-885], the half-maximal inhibitory concentration (IC50) in the assay on BT-474 was > 30 µM (not active). For the same compound, the residual activity in [1] is 100%; in assay [2], 98%; in assay [3] it was 100%; in assay [4], 100%; in assay [5], 88%; in assay [6] it was 100%. Further, the residual activity in assay [7] is 78%; in [8] it was 100%; in assay [9] it was 100%; in assay [10] it was 96%; in assay [11], 100%; in assay [12], 100%. Moreover, in assay [13], the residual activity is 100%. The inhibition in [14] is -9.57%; in [15] it was 7.59%; in assay [16] it was 14.6%.

(Values after ChEMBL document CHEMBL4507268 (2021).)
